Source: ChEMBL document CHEMBL6109056, “Disrupted target binding with acryloyl group as potential Bcr-Abl/C-Src dual kinase inhibitor optimization strategies with maintained antitumor activity” (Bioorg Med Chem Lett, 2025)

Assays:
Bcr/Abl fusion protein = Bcr/Abl fusion protein (Homo sapiens, UniProt P00519); assay: Inhibition of wild-type Bcr-Abl (unknown origin) in presence of ATP; format: protein assay
[1] = Inhibition of C-Src (unknown origin) in presence of ATP; design: species or system Homo sapiens
K562 [2] = assay: Cytotoxicity against human K562 cells assessed as growth inhibition incubated for 72 hrs by MTT assay; format: functional, cell-based; conditions: K562, 72 h
MCF7 [3] = assay: Cytotoxicity against human MCF7 cells assessed as growth inhibition at 10 uM incubated for 72 hrs by MTT assay relative to control; format: functional
A549 [4] = assay: Cytotoxicity against human A549 cells assessed as growth inhibition incubated for 72 hrs by MTT assay; format: functional, cell-based; conditions: A549, 72 h
A549 [5] = assay: Cytotoxicity against human A549 cells assessed as growth inhibition at 10 uM incubated for 72 hrs by MTT assay relative to control; format: functional
K562 [6] = assay: Cytotoxicity against human K562 cells assessed as growth inhibition at 10 uM incubated for 72 hrs by MTT assay relative to control; format: functional
MCF7 [7] = assay: Cytotoxicity against human MCF7 cells assessed as growth inhibition incubated for 72 hrs by MTT assay; format: functional, cell-based; conditions: MCF7, 72 h
HCT-116 [8] = assay: Cytotoxicity against human HCT-116 cells assessed as growth inhibition incubated for 72 hrs by MTT assay; format: functional, cell-based; conditions: HCT-116, 72 h
HCT-116 [9] = assay: Cytotoxicity against human HCT-116 cells assessed as growth inhibition at 10 uM incubated for 72 hrs by MTT assay relative to control; format: functional
[10] = target: Bcr/Abl fusion protein (Homo sapiens) (UniProt P00519+P11274); assay: Inhibition of wild-type Bcr-Abl (unknown origin) at 10 uM in presence of ATP relative to control; format: protein assay
Sequence of Bcr/Abl fusion protein (Homo sapiens) (P00519 whole entry, looked up, the tested form may be a part): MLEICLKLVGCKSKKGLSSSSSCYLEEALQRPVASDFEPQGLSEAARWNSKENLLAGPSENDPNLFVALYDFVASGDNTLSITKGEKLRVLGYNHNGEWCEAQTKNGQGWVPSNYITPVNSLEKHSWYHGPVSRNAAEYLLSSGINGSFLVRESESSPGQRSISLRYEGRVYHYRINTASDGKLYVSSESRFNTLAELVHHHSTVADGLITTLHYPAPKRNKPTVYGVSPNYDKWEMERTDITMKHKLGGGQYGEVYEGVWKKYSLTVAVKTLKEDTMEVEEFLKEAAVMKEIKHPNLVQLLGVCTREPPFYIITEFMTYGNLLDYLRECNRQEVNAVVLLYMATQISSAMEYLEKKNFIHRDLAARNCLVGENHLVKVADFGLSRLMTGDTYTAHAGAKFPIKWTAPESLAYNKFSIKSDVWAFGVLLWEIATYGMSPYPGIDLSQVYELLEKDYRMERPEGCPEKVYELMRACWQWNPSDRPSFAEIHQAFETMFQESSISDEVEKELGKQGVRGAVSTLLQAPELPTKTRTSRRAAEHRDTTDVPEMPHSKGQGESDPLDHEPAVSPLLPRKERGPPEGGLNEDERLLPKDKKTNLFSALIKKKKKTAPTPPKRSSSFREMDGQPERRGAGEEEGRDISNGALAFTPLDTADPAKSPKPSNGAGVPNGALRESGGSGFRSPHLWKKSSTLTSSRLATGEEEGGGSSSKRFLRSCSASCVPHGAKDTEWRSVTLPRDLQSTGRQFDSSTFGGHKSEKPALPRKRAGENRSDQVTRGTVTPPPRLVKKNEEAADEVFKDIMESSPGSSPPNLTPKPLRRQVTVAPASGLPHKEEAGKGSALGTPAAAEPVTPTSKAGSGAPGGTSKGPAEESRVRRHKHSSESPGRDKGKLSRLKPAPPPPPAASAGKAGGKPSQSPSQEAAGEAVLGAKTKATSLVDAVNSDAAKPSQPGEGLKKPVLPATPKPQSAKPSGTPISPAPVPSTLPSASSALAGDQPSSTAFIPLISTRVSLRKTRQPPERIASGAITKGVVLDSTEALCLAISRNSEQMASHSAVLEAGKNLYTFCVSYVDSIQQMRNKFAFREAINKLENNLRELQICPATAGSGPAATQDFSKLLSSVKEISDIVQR
Sequence of Bcr/Abl fusion protein (Homo sapiens) (P11274 whole entry, looked up, the tested form may be a part): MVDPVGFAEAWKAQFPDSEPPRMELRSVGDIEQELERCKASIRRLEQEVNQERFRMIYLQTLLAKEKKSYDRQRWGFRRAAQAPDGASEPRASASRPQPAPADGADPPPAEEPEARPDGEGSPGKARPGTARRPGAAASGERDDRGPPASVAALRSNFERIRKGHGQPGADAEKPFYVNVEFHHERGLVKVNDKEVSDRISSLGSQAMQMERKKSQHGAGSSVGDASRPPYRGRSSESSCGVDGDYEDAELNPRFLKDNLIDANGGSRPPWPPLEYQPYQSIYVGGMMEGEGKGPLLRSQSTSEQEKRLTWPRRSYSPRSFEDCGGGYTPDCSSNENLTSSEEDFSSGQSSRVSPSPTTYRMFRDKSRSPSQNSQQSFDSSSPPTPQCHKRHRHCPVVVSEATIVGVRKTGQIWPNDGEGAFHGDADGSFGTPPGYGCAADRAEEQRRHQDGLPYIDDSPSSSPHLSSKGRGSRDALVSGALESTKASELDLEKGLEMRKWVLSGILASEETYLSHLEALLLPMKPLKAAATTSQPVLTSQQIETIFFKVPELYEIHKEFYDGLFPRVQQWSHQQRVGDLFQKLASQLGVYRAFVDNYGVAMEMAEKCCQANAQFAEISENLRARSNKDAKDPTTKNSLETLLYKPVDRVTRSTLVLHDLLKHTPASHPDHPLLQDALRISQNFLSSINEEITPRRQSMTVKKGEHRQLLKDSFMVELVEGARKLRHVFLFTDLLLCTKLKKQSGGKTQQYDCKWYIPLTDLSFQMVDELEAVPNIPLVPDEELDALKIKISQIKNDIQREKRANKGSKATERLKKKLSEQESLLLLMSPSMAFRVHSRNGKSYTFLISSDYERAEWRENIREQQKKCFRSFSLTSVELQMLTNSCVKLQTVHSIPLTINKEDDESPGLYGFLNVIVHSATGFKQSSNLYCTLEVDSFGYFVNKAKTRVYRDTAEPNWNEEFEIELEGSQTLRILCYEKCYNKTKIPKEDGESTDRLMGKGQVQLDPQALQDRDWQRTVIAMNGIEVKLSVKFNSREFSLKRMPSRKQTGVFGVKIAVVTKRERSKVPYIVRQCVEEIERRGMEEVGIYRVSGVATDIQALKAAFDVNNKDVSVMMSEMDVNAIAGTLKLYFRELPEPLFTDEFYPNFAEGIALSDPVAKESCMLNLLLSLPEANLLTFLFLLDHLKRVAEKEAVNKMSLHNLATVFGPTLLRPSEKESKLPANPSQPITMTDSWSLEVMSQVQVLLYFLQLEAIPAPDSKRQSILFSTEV

Homo sapiens = species on record: Homo sapiens; assay: Inhibition of C-Src (unknown origin) at 10 uM in presence of ATP relative to control

Sequence of Bcr/Abl fusion protein (P00519 whole entry, the tested form may be a part): as the sequence (P00519 whole entry, looked up, the tested form may be a part) above
Sequence of Bcr/Abl fusion protein (P11274 whole entry, further chain, the tested form may be a part): as the sequence (P11274 whole entry, looked up, the tested form may be a part) above

| Compound | IC50 (Bcr/Abl fusion protein) [nM] | IC50 [1] [nM] | EC50 (K562 [2]) [nM] | EC50 (A549 [4]) [nM] | other results |
| --- | --- | --- | --- | --- | --- |
| C=CC(=O)N(c1cc(OC)ccc1Cl)c1c(C#N)cnc2cc(OCCCN3CCN(C)CC3)c(OC)cc12 | 186 | 484 | 9830 | – | inhibition at 10 µM (MCF7 [3]): 40%; inhibition at 10 µM (A549 [5]): 32% |
| COc1cc(N(C(C)=O)c2c(C#N)cnc3cc(OCCCN4CCCCC4)c(OC)cc23)c(Cl)cc1Cl | 1100 | 770 | – | – | inhibition at 10 µM (K562 [6]): 31%; inhibition at 10 µM (MCF7 [3]): 34%; inhibition at 10 µM (HCT-116 [9]): 34%; inhibition at 10 µM (A549 [5]): 28% |
| COc1cc2ncc(C#N)c(Nc3ccc(Br)cc3Br)c2cc1OC | 5430 | 2440 | – | – | – |
| COc1cc2ncc(C#N)c(Nc3ccc(Cl)cc3Cl)c2cc1OC | 4.38 | 4.67 | – | – | – |
| C=CC(=O)N(c1ccccc1)c1c(C#N)cnc2cc(OC)c(OC)cc12 | – | – | – | – | inhibition [10]: 7.1%; inhibition (Homo sapiens): 9.5% |
| C=CC(=O)N(c1cc(OC)ccc1Cl)c1c(C#N)cnc2cc(OCCCN3CCCCC3)c(OC)cc12 | 112 | 132 | 9760 | 8900 | EC50 (MCF7 [7]): 9450 nM |
| C=CC(=O)N(c1cc(OC)c(Cl)cc1Cl)c1c(C#N)cnc2cc(OCCCN3CCOCC3)c(OC)cc12 | 169 | 110 | 6390 | 4170 | EC50 (MCF7 [7]): 7850 nM |
| C=CC(=O)N(c1ccc(Cl)cc1Cl)c1c(C#N)cnc2cc(OC)c(OC)cc12 | 1330 | 2080 | – | – | – |
| C=CC(=O)N(c1ccc(Br)cc1Br)c1c(C#N)cnc2cc(OC)c(OC)cc12 | > 10000 | 8520 | – | – | – |
| C=CC(=O)N(c1cc(OC)ccc1Cl)c1c(C#N)cnc2cc(OCCCN3CCOCC3)c(OC)cc12 | 193 | 207 | – | – | inhibition at 10 µM (K562 [6]): 40%; inhibition at 10 µM (MCF7 [3]): 25%; inhibition at 10 µM (A549 [5]): 31% |
| C=CC(=O)N(c1cc(OC)c(Cl)cc1Cl)c1c(C#N)cnc2cc(OC)c(OC)cc12 | 893 | 863 | – | – | – |
| COc1cc2ncc(C#N)c(Nc3ccccc3)c2cc1OC | – | – | – | – | inhibition [10]: 98.7%; inhibition (Homo sapiens): 96.5% |
| C=CC(=O)N(c1cc(OC)c(Cl)cc1Cl)c1c(C#N)cnc2cc(OCCCN3CCCCC3)c(OC)cc12 | 214 | 169 | 3190 | 5500 | EC50 (HCT-116 [8]): 6380 nM |
| C=CC(=O)N(c1cc(OC)c(Cl)cc1Cl)c1c(C#N)cnc2cc(OCCCN3CCN(C)CC3)c(OC)cc12 | 56.2 | 101 | 1060 | 1440 | EC50 (HCT-116 [8]): 4860 nM |
| C=CC(=O)N(c1cc(OC)ccc1Cl)c1c(C#N)cnc2cc(OC)c(OC)cc12 | 569 | 1840 | – | – | – |

Second part, led by results:

| IC50 (Bcr/Abl fusion protein) [nM] | IC50 [1] [nM] | Compound | EC50 (K562 [2]) [nM] | EC50 (A549 [4]) [nM] | other results |
| --- | --- | --- | --- | --- | --- |
| 0.3 | 0.35 | COc1ccc(Cl)c(Nc2c(C#N)cnc3cc(OCCCN4CCCCC4)c(OC)cc23)c1 | 8070 | 7870 | inhibition at 10 µM (MCF7 [3]): 29% |
| 0.06 | 0.23 | COc1ccc(Cl)c(Nc2c(C#N)cnc3cc(OCCCN4CCN(C)CC4)c(OC)cc23)c1 | – | 4510 | inhibition at 10 µM (K562 [6]): 46%; EC50 (MCF7 [7]): 4490 nM |
| 0.14 | 0.11 | COc1cc(Nc2c(C#N)cnc3cc(OCCCN4CCCCC4)c(OC)cc23)c(Cl)cc1Cl | 7330 | 8560 | EC50 (HCT-116 [8]): 7990 nM |
| 0.23 | 0.33 | COc1ccc(Cl)c(Nc2c(C#N)cnc3cc(OCCCN4CCOCC4)c(OC)cc23)c1 | 1190 | 7150 | EC50 (MCF7 [7]): 9340 nM |
| 0.64 | 0.89 | COc1ccc(Cl)c(Nc2c(C#N)cnc3cc(OC)c(OC)cc23)c1 | – | – | – |
| 0.76 | 0.77 | COc1cc(Nc2c(C#N)cnc3cc(OC)c(OC)cc23)c(Cl)cc1Cl | – | – | – |
| – | 0.14 | COc1cc(Nc2c(C#N)cnc3cc(OCCCN4CCN(C)CC4)c(OC)cc23)c(Cl)cc1Cl [BOSUTINIB] | 690 | 970 | EC50 (HCT-116 [8]): 3420 nM |
| 0.42 | 0.27 | COc1cc(Nc2c(C#N)cnc3cc(OCCCN4CCOCC4)c(OC)cc23)c(Cl)cc1Cl | 6430 | 7400 | EC50 (MCF7 [7]): 8670 nM |
